Reference: patent publication US20230014181A1, “CULTURE SYSTEM AND METHODS FOR IMPROVED MODELING OF NEUROLOGICAL CONDITIONS” (Genentech, Inc., priority 2021, published 2023)
Where two headings read alike, the source gives them in different places.

Key:
[1] = tested on: human iPSC-derived microglia treated with 5 μM soluble Aβ species; assay: Microglia plaque formation (Methoxy-X04-positive structures) with dynamin inhibitors; type: cell-based; conditions: 0.6 μM for 24 h
Protocol: Error bars+/−s.e.m. and n=4 wells; ANOVA ***P<0.001, **P<0.01.
iPSC derived microglia were obtained and screened for microglia marker expression. iPSC microglia were then differentiated. Briefly, iPSCs were treated with BMP, FGF and activin for 2-4 days to induce mesoderm fate, then treated with VEGF and supportive hematopoietic cytokines for 6-10 days to generate hematopoietic progenitors (HPCs). HPCs were seeded onto matrigel-coated flasks, and treated with IL-34, IDE1 (TGF-β1 agonist), and M-CSF for 3-4 weeks to differentiate into microglia. Human iPSC microglia were validated by immunostaining of the following markers: Goat anti-TREM2 (1:500), Mouse anti-MERTK (1:500), Rabbit anti-IBA1 (1:1000), Rabbit anti-TMEM119 (1:500), CD33 (1:500), CX3CR1 (1:500), CD64 (1:500), P2RY12 (1:500), CD32 (1:500), PU.1 (1:500).
To further confirm time-lapsed result, an immunostaining time-course study was performed. Microglia took up Aβs within 30 minutes (FIG. 14D). After 6 hours, small internalized puncta disappeared and a larger, faintly X04 positive, Aβ42 aggregate appeared at the edge near each cell (FIG. 14D). After 1 day, larger Aβ42 aggregates with higher X04 staining intensity were seen next to microglia, and additional microglia began to surround these aggregates. At 4 days X04 dye positive plaque structures were present with surrounding microglia. […]

[2] = tested on: Aβ42 oligomer-induced neural toxicity in human iPSC neurons; assay: Hit validation by IC50 curves in double culture (MAP2, Synapsin 1/2, CUX2, NFL-H); type: cell-based; conditions: dose response
Protocol: (§1) Error bars+/−s.e.m. and n=4 wells. IC50 curves were fitted by Prism software.
as §1
Error bars+/−s.e.m. and n=4 wells. IC50 curves were fitted using Prism software.
To further validate this pathway, several known inhibitors of kinases in the DLK signaling pathway were tested to determine whether they could also be neuroprotective in the AD model.

[3] = tested on: soluble Aβ42 species; assay: Anti-Aβ antibody co-treatment rescue of soluble Aβ42 species neurotoxicity in iPSC neurons; type: cell-based, human
Protocol: (§2) Error bars+/−s.e.m. and n=4 wells.
To investigate whether AD pathologies can be studied in a controlled, in vitro system of human neurons, cultured human iPSC-derived neurons were treated with synthetic Aβ42 oligomers, prepared by oligomerization of Aβ42 monomers at 4° C. following previously published protocols (FIG. 2A; following Stine et al., 2011). Briefly, AggreSure™ β-Amyloid (1-42), human monomers (Anaspec) were resuspended in DMSO followed by PBS to form a 100 μM solution. Aβ42 monomers were subsequently incubated at 4° C. for 24 hours, then frozen at −80° C. to stop the oligomerization process. Five to six lots of Aβ42 monomers were screened at time and assessed for neurotoxic and the degree of toxicity. About twenty lots for screened in the course of 4 years. For fluorescent Aβ42 oligomer experiments, Beta-Amyloid (1-42), HiLyte™ Fluor 555-labeled, Human (Anaspec) was used. […]
Several additional tau phosphorylation sites observed in AD, S396/404, S217, S235, S400/T403/S404, and T181, were hyperphosphorylated when treated with Aβ42 oligomers (FIGS. 4V-4Z). […] Using this quantitative platform, the half-maximal inhibitory concentration (IC50) for anti-Aβ antibody rescue of MAP2, synapsin, and pTau induction was generated (FIG. 3R).

[4] = tested on: primary human astrocytes; assay: Astrocyte GFAP expression in response to soluble Aβ species; type: cell-based; conditions: astrocytes cultured alone; 3DIV
Protocol: Error bars+/−s.e.m. and n=4 wells; ANOVA ****P<0.0001, ***P<0.001, **P<0.01.
Astrocytes were then validated. Briefly, primary human astrocytes were detached using Accumax (Innovative Cell Technologies) and seeded onto 384-well plates coated with 1:100 Geltrex™ (Thermofisher) solution for at least 1 hour in a 37° C. cell incubator. Cells were seeded at a density of 2,000 cells/well in Neuron Maintenance Medium (1× BrainPhys™ Basal (StemCell Technology), 1× B27 with Vitamin A, 1×N-2, 5 μg/mL cholesterol, 1 mM creatine, 10 nM β-estradiol, 200 nM ascorbic acid, 1 mM cAMP (Sigma-Aldrich), 20 ng/mL BDNF, 20 ng/mL GDNF, 1 μg/mL Laminin, 0.5 mM GlutaMAX™ (Thermofisher), 1 ng/mL TGF-β1, 1× normocin, 50 U/mL penicillin-streptomycin). Cells were placed in 37° C. cell incubator for 24 hours to allow for attachment. Aβ42 and antibody treatments were added as described in other Examples. Astrogliosis was validated was validated by immunostaining of the following markers: Guinea Pig anti GFAP (1:500), Rabbit anti EAAT1 (1:500), Rabbit anti vimentin (1:500), Rabbit ALDH1L1 (1:500).

[5] = tested on: human iPSC-derived neurons; assay: 21-day time course of single doses of soluble Aβ42 species on iPSC neurons; type: cell-based; conditions: 1.25 μM
Protocol: To investigate whether AD pathologies can be studied in a controlled, in vitro system of human neurons, cultured human iPSC-derived neurons were treated with synthetic Aβ42 oligomers, prepared by oligomerization of Aβ42 monomers at 4° C. following previously published protocols (FIG. 2A; following Stine et al., 2011). Briefly, AggreSure™ β-Amyloid (1-42), human monomers (Anaspec) were resuspended in DMSO followed by PBS to form a 100 μM solution. Aβ42 monomers were subsequently incubated at 4° C. for 24 hours, then frozen at −80° C. to stop the oligomerization process. Five to six lots of Aβ42 monomers were screened at time and assessed for neurotoxic and the degree of toxicity. […] For fluorescent Aβ42 oligomer experiments, Beta-Amyloid (1-42), HiLyte™ Fluor 555-labeled, Human (Anaspec) was used. For pHrodo experiments, Beta-Amyloid (1-42) buman was labeled with pHrodo™ Green AM Intracellular pH Indicator (Invitrogen) according to manufacturer's protocol.
Prior to experimentation, media volume in wells containing neurons was equalized with liquid handling automation (Bravo) in order to ensure precise control of concentrations. All Aβ42 oligomers, anti-Aβ, small molecules, inflammatory cytokines were prepared at 10× concentration and added to Neuronal Culture Media at an appropriate volume. […]

[6] = tested on: primary rat cortical neurons; assay: Aβ42 oligomer toxicity in primary rat cortical neurons; type: cell-based; conditions: several lots
Protocol: as §2
The preps were determined to contain a heterogeneous mixture of both soluble oligomer and fibrils, and thus were referred to as “soluble Aβ42 species” (Aps).

[7] = tested on: human iPSC neurons and astrocytes treated with 5 μM sAβ42s; assay: Focused small molecule screen, double culture (neuron, astrocyte), rescue from sAβ42s toxicity, high content imaging; type: cell-based; conditions: double culture, 5 μM sAβ42s; for percent rescue from sAβ42s toxicity at 6.25 µM / percent rescue from sAβ42s toxicity at 12.5 µM / percent rescue from sAβ42s toxicity at 25 µM / percent rescue from sAβ42s toxicity at 50 µM: Homo sapiens, iPSC
Summary of the method: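 Human iPSC neuron–astrocyte cultures given 5 μM sAβ42 oligomers plus compounds at 50, 25, 12.5 and 6.25 μM (10× additions). Fixed cells immunostained for MAP2, synapsin 1/2, CUX2 and beta III tubulin, imaged by confocal high-content microscopy; % rescue computed, ≥30% in any readout scored as hit.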

[8] = tested on: human iPSC neurons, astrocytes and microglia treated with 5 μM sAβ42s; assay: Focused small molecule screen, triple culture (neuron, astrocyte, microglia), rescue from sAβ42s toxicity; type: cell-based; conditions: 50.00 μM compound; for percent rescue from sAβ42s toxicity at 50 µM: Homo sapiens, iPSC
Summary of the method: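 A hit was any compound giving ≥30% rescue of dendrite area (MAP2), synapse count, CUX2 cell count or axon area when dosed against 5 μM sAβ42s toxicity. Testing used iPSC-derived double (neuron/astrocyte) or triple (plus microglia) cultures, at four concentrations of 50, 25, 12.5 and 6.25 μM for double and 50, 12.5, 3.1 and 0.78 μM for triple cultures.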

Molecule: O=C(N/N=C/c1ccc(O)c(O)c1)c1cc2ccccc2cc1O [Dynasore]
- decrease of plaque formation (Methoxy-X04-positive plaque-like structures) [1]: approximately 4 fold

Molecule: Nc1ncc(C(=O)NC2CN(C(=O)C3CC3)C2)c2ccc(-c3cccc(F)c3)nc12 [GNE-495]
- neuronal protection against Aβ [2]: conferred neuronal protection against Aβ in a dose-dependent manner

Molecule: CCCCCCCCNC(=O)/C(C#N)=C/c1cn(CCCN(C)C)c2ccccc12 [Dynole 34-2]
- decrease of plaque formation (Methoxy-X04-positive plaque-like structures) [1]: approximately 4 fold

Molecule: Nc1ccc(-c2cnc(N)c(-c3ccc(Cl)cc3)c2)cn1 [PF06260933]
- neuronal protection against Aβ [2]: conferred neuronal protection against Aβ in a dose-dependent manner

Molecule: Crenezumab: anti-Aβ antibody
- phospho-Tau p396-404 and p400-403-404 upregulation ([3]; NAG-NSC Line 2): blocked
- loss of dendrites (MAP2) and synapses (synapsin) ([3]; NAG-NSC Line 2 and primary astrocytes, 5 μM soluble Aβ species, 7 days): rescued
- GFAP upregulation by soluble Aβ species [4]: blocked

Molecule: soluble Aβ42 species: heterogeneous mixture of soluble oligomer and fibrils made from synthetic Aβ42 monomers at 4° C.
- dendrite or axon reduction [5]: no effect on dendrite or axon reduction
- reduction in dendrites or synapses [6]: did not show reduction in dendrites or synapses

Molecule: Cc1cc(NC(=O)c2cccc(NC(=O)/C=C/CN(C)C)c2)ccc1Nc1nccc(-c2cccnc2)n1 [JNK-IN-8]
- neuronal protection against Aβ [2]: conferred neuronal protection against Aβ in a dose-dependent manner

Molecule: Cc1cc(Nc2cc(N3CCN(C)CC3)nc(Sc3ccc(NC(=O)C4CC4)cc3)n2)n[nH]1 [VX-680]
- neuronal protection against Aβ [2]: conferred neuronal protection against Aβ in a dose-dependent manner

Molecule: CCCC[C@@H](C=O)NC(=O)[C@H](CC(C)C)NC(=O)OCc1ccccc1 [Calpeptin]
- percent rescue from sAβ42s toxicity at 6.25 µM ([7]; 6.25 μM compound, read-out: % B3T rescue): 9%
- percent rescue from sAβ42s toxicity at 6.25 µM ([7]; 6.25 μM compound, read-out: % Cux2 rescue): 70%
- percent rescue from sAβ42s toxicity at 6.25 µM ([7]; 6.25 μM compound, read-out: % MAP2 rescue): 22%
- percent rescue from sAβ42s toxicity at 6.25 µM ([7]; 6.25 μM compound, read-out: % Synapse rescue): 6%
- percent rescue from sAβ42s toxicity at 12.5 µM ([7]; 12.5 μM compound, read-out: % B3T rescue): 4%
- percent rescue from sAβ42s toxicity at 12.5 µM ([7]; 12.5 μM compound, read-out: % Cux2 rescue): 79%
- percent rescue from sAβ42s toxicity at 12.5 µM ([7]; 12.5 μM compound, read-out: % MAP2 rescue): 27%
- percent rescue from sAβ42s toxicity at 12.5 µM ([7]; 12.5 μM compound, read-out: % Synapse rescue): 11%
- percent rescue from sAβ42s toxicity at 25 µM ([7]; 25 μM compound, read-out: % B3T rescue): 7%
- percent rescue from sAβ42s toxicity at 25 µM ([7]; 25 μM compound, read-out: % Cux2 rescue): 91%
- percent rescue from sAβ42s toxicity at 25 µM ([7]; 25 μM compound, read-out: % MAP2 rescue): 39%
- percent rescue from sAβ42s toxicity at 25 µM ([7]; 25 μM compound, read-out: % Synapse rescue): 9%
- percent rescue from sAβ42s toxicity at 50 µM ([7]; 50 μM compound, read-out: % B3T rescue): 20%
- percent rescue from sAβ42s toxicity at 50 µM ([7]; 50 μM compound, read-out: % Cux2 rescue): 96%
- percent rescue from sAβ42s toxicity at 50 µM ([7]; 50 μM compound, read-out: % MAP2 rescue): 36%
- percent rescue from sAβ42s toxicity at 50 µM ([7]; 50 μM compound, read-out: % Synapse rescue): 15%
- percent rescue from sAβ42s toxicity at 50 µM ([8]; read-out: % B3T rescue): 66%
- percent rescue from sAβ42s toxicity at 50 µM ([8]; read-out: % MAP2 rescue): 34%
- percent rescue from sAβ42s toxicity at 50 µM ([8]; read-out: % Synapse rescue): 34%

Molecule: Cc1ccc2c(c1)C(=O)[C@]1(O)CCN(c3ccccc3)C1=N2 [(S)-(−)-Blebbistatin]
- % B3T rescue ([7]; 6.25 μM compound): 41%
- % Cux2 rescue ([7]; 6.25 μM compound): 10%
- % MAP2 rescue ([7]; 6.25 μM compound): 21%
- % Synapse rescue ([7]; 6.25 μM compound): 19%
- % B3T rescue ([7]; 12.5 μM compound): 34%
- % Cux2 rescue ([7]; 12.5 μM compound): 3%
- % MAP2 rescue ([7]; 12.5 μM compound): 25%
- % Synapse rescue ([7]; 12.5 μM compound): 15%
- % B3T rescue ([7]; 25 μM compound): 38%
- % Cux2 rescue ([7]; 25 μM compound): 5%
- % MAP2 rescue ([7]; 25 μM compound): 34%
- % Synapse rescue ([7]; 25 μM compound): 13%
- % B3T rescue ([7]; 50 μM compound): 49%
- % Cux2 rescue ([7]; 50 μM compound): 23%
- % MAP2 rescue ([7]; 50 μM compound): 34%
- % Synapse rescue ([7]; 50 μM compound): 12%
- % B3T rescue [8]: 36%
- % MAP2 rescue [8]: 24%
- % Synapse rescue [8]: 20%
